Assay results as given in patent US9957271B2, “Substituted bicyclic aza-heterocycles and analogues as sirtuin modulators” (GlaxoSmithKline, LLC, priority 2012, dated 2018).

Columns and labels:
SIRT1 [1] = molecular target: T1, SIRT1 (Homo sapiens, UniProt Q96EB6); assay: Trp mass spectrometry assay of SIRT1 activity; assay type: biochemical; conditions: Trp assay; for Trp EC1.5 (μM): concentration giving 150% activation of SIRT1; for Emax: percent maximum fold activation, read-out: Trp % Fold Act
T1 sequence (Q96EB6 1-747): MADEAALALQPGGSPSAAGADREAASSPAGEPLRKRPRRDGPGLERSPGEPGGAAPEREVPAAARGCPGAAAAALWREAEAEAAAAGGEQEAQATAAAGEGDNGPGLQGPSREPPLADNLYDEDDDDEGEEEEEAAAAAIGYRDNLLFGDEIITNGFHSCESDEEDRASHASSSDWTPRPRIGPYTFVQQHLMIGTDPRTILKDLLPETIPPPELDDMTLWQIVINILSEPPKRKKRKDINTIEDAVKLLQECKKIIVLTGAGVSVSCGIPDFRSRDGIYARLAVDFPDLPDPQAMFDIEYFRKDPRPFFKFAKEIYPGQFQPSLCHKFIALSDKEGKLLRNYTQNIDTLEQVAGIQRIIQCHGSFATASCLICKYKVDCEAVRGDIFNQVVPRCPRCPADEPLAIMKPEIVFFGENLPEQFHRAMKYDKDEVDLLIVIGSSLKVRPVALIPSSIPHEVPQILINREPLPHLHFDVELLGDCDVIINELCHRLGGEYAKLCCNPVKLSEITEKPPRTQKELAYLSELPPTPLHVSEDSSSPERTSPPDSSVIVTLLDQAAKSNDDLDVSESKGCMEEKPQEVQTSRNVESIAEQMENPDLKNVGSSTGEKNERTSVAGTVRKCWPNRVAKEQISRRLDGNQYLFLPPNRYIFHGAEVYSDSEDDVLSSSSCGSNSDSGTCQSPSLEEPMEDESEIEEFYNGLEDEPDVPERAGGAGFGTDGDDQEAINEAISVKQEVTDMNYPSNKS
Summary of the method: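 Activation readout: EC1.5 (concentration raising activity 50% over control) and percent maximum activation, from mass-spec quantitation of OAADPR or deacetylated Trp peptide. Reaction: 0.5 μM acetylated Trp peptide, 120 μM βNAD+, 10 nM bacterially expressed N-His SIRT1, pH 7.5 HEPES buffer with […], 25 min at 25° C.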

SIRT1 [2] = molecular target: T1, SIRT1; assay: TAMRA based mass spectrometry assay of SIRT1 activity; assay type: biochemical; conditions: TAMRA assay; for TAMRA EC1.5 (μM): concentration giving 150% activation of SIRT1; for Emax: percent maximum fold activation, read-out: TAMRA % Fold Act
Summary of the method: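 Deacetylation of a biotinylated, TAMRA-tagged p53-based peptide (0.5 μM) by 10 nM His-tagged SIRT1 with 120 μM βNAD+, 25 °C for 25 min, pH 8 Tris-acetate buffer, across a compound concentration range. Quenched by formic acid and read by mass spec as product peptide or OAADPR; activity relative to DMSO reactions, nicotinamide defining maximal inhibition.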

Compound	Trp EC1.5 (μM) (SIRT1 [1])	Emax (SIRT1 [1]) [%]	TAMRA EC1.5 (μM) (SIRT1 [2])	Emax (SIRT1 [2]) [%]
Cc1nn2ccc(-c3ccccc3C(F)(F)F)nc2c1C(=O)Nc1ccc(F)cn1 [Compound 686]	A (EC1.5<1 μM)	< 350	A (EC1.5<1 μM)	≥ 350
Cc1cc(C)nc(NC(=O)c2cnn3ccc(-c4ccccc4OC(F)(F)F)nc23)n1 [Compound 688]	B (EC1.5 1-25 μM)	< 350	B (EC1.5 1-25 μM)	≥ 350
Cc1cccc(-c2ccc3nc(C)c(C(=O)Nc4ccc(C)nn4)n3n2)c1 [Compound 692]	A (EC1.5<1 μM)	< 350	A (EC1.5<1 μM)	< 350
Cc1ccc(NC(=O)c2c(C)nc3ccc(-c4ccccc4C)nn23)nn1 [Compound 694]	B (EC1.5 1-25 μM)	< 350	B (EC1.5 1-25 μM)	≥ 350
Cc1nn2ccc(-c3ccccc3C(F)(F)F)nc2c1C(=O)Nc1cccnn1 [Compound 695]	A (EC1.5<1 μM)	≥ 350	A (EC1.5<1 μM)	≥ 350
Cc1ccc(NC(=O)c2c(C)nn3ccc(-c4ccccc4C(F)(F)F)nc23)c(C)n1 [Compound 698]	A (EC1.5<1 μM)	≥ 350	A (EC1.5<1 μM)	≥ 350
Cc1cccnc1NC(=O)c1cnn2ccc(-c3ccccc3OC(F)(F)F)nc12 [Compound 701]	A (EC1.5<1 μM)	≥ 350	B (EC1.5 1-25 μM)	< 350
O=C(Nc1cnc2ccc(-c3ccccc3C(F)(F)F)nn12)c1cnc(O)cn1 [Compound 704]	B (EC1.5 1-25 μM)	< 350	A (EC1.5<1 μM)	≥ 350
Cc1nc2ccc(-c3ccccc3F)nn2c1C(=O)Nc1cccnn1 [Compound 706]		< 350		< 350
CCOc1cc(NC(=O)c2c(C)nn3ccc(-c4ccccc4C(F)(F)F)nc23)ccn1 [Compound 707]	A (EC1.5<1 μM)	≥ 350	A (EC1.5<1 μM)	≥ 350
Cc1cnc(NC(=O)c2c(C)nn3ccc(-c4ccccc4C(F)(F)F)nc23)cn1 [Compound 710]	A (EC1.5<1 μM)	≥ 350	A (EC1.5<1 μM)	≥ 350
Cc1nc(C(=O)Nc2cnn3ccc(-c4ccccc4OC(F)(F)F)nc23)c(C)s1 [Compound 713]	B (EC1.5 1-25 μM)	< 350	B (EC1.5 1-25 μM)	≥ 350
Cc1ccc(NC(=O)c2c(C)nc3ccc(-c4cccc(F)c4)nn23)nn1 [Compound 716]	A (EC1.5<1 μM)	< 350	B (EC1.5 1-25 μM)	< 350
COc1ccc(NC(=O)c2c(C)nc3ccc(-c4cccc(OC(F)(F)F)c4)nn23)nn1 [Compound 718]	C (EC1.5>25 μM)	< 350	A (EC1.5<1 μM)	< 350
Cc1cccnc1NC(=O)c1c(C)nn2ccc(-c3ccccc3C(F)(F)F)nc12 [Compound 722, 2-methyl-N-(3-methylpyridin-2-yl)-5-(2-(trifluoromethyl)phenyl)pyrazolo[1,5-a]pyrimidine-3-carboxamide]	A (EC1.5<1 μM)	≥ 350	B (EC1.5 1-25 μM)	< 350
Cc1cnc(NC(=O)c2cnn3ccc(-c4ccccc4C(F)(F)F)nc23)c(C)n1 [Compound 724]	B (EC1.5 1-25 μM)	< 350	C (EC1.5>25 μM)	< 350
Cc1cccc(C(=O)Nc2cnn3ccc(-c4ccccc4OC(F)(F)F)nc23)n1 [Compound 725]	B (EC1.5 1-25 μM)	< 350	A (EC1.5<1 μM)	≥ 350
CC(C)c1nccc(C(=O)Nc2cnn3ccc(-c4ccccc4OC(F)(F)F)nc23)n1 [Compound 728]	C (EC1.5>25 μM)	< 350	A (EC1.5<1 μM)	≥ 350
Cc1nc2c(C)cc(-c3ccccc3C(F)(F)F)nn2c1C(=O)Nc1ccnc(C(C)C)n1 [Compound 730]	A (EC1.5<1 μM)	≥ 350	A (EC1.5<1 μM)	≥ 350
Cc1nc2c(C)cc(-c3ccccc3C(F)(F)F)nn2c1C(=O)Nc1ccnc(C(C)(C)C)n1 [Compound 731]	A (EC1.5<1 μM)	< 350	A (EC1.5<1 μM)	≥ 350
Cc1cnc(C(=O)Nc2cnn3ccc(-c4ccccc4OC(F)(F)F)nc23)cn1 [Compound 734]	C (EC1.5>25 μM)	< 350	B (EC1.5 1-25 μM)	≥ 350
Cc1cc(C)nc(C(=O)Nc2cnn3ccc(-c4ccccc4OC(F)(F)F)nc23)n1 [Compound 736]	C (EC1.5>25 μM)	< 350	A (EC1.5<1 μM)	≥ 350
Cc1cncc(NC(=O)c2c(C)nn3ccc(-c4ccccc4C(F)(F)F)nc23)n1 [Compound 737]	A (EC1.5<1 μM)	≥ 350	A (EC1.5<1 μM)	≥ 350
Cc1ccc(NC(=O)c2c(C)nc3ccc(-c4ccccc4Cl)nn23)nn1 [Compound 742]	C (EC1.5>25 μM)	< 350	A (EC1.5<1 μM)	< 350
COc1ccc(NC(=O)c2c(C)nc3ccc(-c4ccccc4Cl)nn23)nn1 [Compound 743]	C (EC1.5>25 μM)	< 350	B (EC1.5 1-25 μM)	< 350
Cc1cccnc1C(=O)Nc1cnn2ccc(-c3ccccc3C(F)(F)F)nc12 [Compound 746]	C (EC1.5>25 μM)	< 350	A (EC1.5<1 μM)	≥ 350
O=C(Nc1cnn2ccc(-c3ccccc3C(F)(F)F)nc12)c1cccc(-n2cnnc2)n1 [Compound 748]	B (EC1.5 1-25 μM)	< 350	A (EC1.5<1 μM)	≥ 350
O=C(Nc1cnn2ccc(-c3ccccc3C(F)(F)F)nc12)c1ncc(F)cc1F [Compound 749]	B (EC1.5 1-25 μM)	< 350	A (EC1.5<1 μM)	≥ 350
Cc1nc(C(=O)Nc2cnn3ccc(-c4ccccc4OC(F)(F)F)nc23)cs1 [Compound 752]	B (EC1.5 1-25 μM)	< 350	B (EC1.5 1-25 μM)	≥ 350
